# Test results reported in patent publication US20250002473A1, “QUINOXALINE DERIVED SULFONAMIDES WITH EGFR DEGRADATION ACTIVITIES AND THEIR USES THEREOF” (Accutar Biotechnology Inc., priority 2023, published 2025).
# Experiments:
# Format in all cases: cell-based
# [1] = tested on: BaF3_SVD; assay: Cell growth inhibition assay (CellTiter-Glo), BaF3_SVD; conditions: Table 7; BaF3_SVD cells
# Description: (§1) Cells were seeded in a 96-well plate (Corning 3610) with 90 μL of culture medium per well, and plates were incubated at 37° C. overnight. A 1,000× DMSO stock solution of the desired compound was prepared the following day. A compound dilution plate was prepared by diluting the stock solution 1:100 in the corresponding cell culture medium, 10 μL of the diluted compound solution was added to each 96-well plate well containing the seeded cells. Then, the cells were cultured at 37° C. for three days following compound treatment, 100 μL of CellTiter-Glo reagents (Promega G7573) was added to each well of the 96-well plate. The content of the wells was mixed by shaking continuously for 10 min, and luminescence was measured using Envision (PerkinElmer). The data were analyzed with GraphPad Prism 9 (see FIG. 50).
# (§2) Table 6, Table 7, and Table 8 list the cell growth inhibition results, where Gls0 represents the compound concentration to cause 50% cell growth inhibition in comparison with DMSO.
# [2] = target: T1, BaF3_YVAM (Her2_A775insYVAM) (Homo sapiens, UniProt P04626, INS775YVMA); assay: EGFR degradation assay (western blot), BaF3_YVAM cells; conditions: Table 5; BaF3_YVMA cells (mutant Her2), 24 h
# T1 construct: expressed in transfected cells; host or cells: Ba/F3 (engineered)
# Description: (§3) A431 (EGFR_WT), NCl-H2073 (EGFR_WT), NCl-H292 (EGFR_WT), BaF3_YVAM (Her2_A775insYVAM), BaF3_SVD (EGFR_D770insSVD), BaF3_ASV (EGFR_A776inASV), or BaF3_DTC (EGFR_Exon19del/T790M/C797S) cells were seeded in a 24-well plate at a density of 4×10^5 cells per well for EGFR WT cells and 8× cells per well for EGFR or Her2 mutant cells, and the plates were incubated overnight. The cells were treated with the desired compounds for 24 h. The culture medium was removed, and 100 μL of RIPA buffer (Beyotime, P0013B) containing 1% Protease Inhibitor Cocktail (Bimake, B14001), 1% Phosphatase Inhibitor Cocktail 2 (Sigma, P5726), and 1% Phosphatase Inhibitor Cocktail 3 (Sigma, P0044) were added to lyse the cells. Then, the cell lysates were transferred to 1.5 mL microcentrifuge tubes and centrifuged at 12,000 rpm and 4° C. for 30 min. The supernatants were transferred into new tubes, and the protein concentration was determined using the BCA protein quantification method. All samples were diluted to the same concentration using RIPA buffer, loading buffer was added, samples were denatured, and 15 μg of protein per lane was loaded onto a SurePAGE 4-20% Bis-Tris gel. Samples were separated via electrophoresis in MOPS running buffer at 180 V for 100 min. Then, proteins were transferred onto PVDF membranes using the MiniBlot™ Electrophoretic Transfer Cell Device (Beyotime, E6050). The membrane was blocked using block buffer (LI-COR 927-60001) to prevent non-specific binding. The membrane was incubated with primary antibodies (1:500 dilution, EGFR-CST4405, 1:2000 dilution, Tubulin-ABclonal #AC021) at 4° C. overnight. The membrane was washed three times with 1× TBST buffer for 15 min each. The membrane was incubated with secondary antibodies IRDye 680RD Goat anti-Rabbit IgG Secondary Antibody (1:2000 dilution, LI-COR 926-68071) and IRDye 800CW Goat anti-Mouse IgG Secondary Antibody (1:2000 dilution, LI-COR 926-32210). […] Fluorescence was detected using the Odyssey CLx Imaging System, and the data were analyzed with Empiria Studio Software and GraphPad Prism 9. […]
# [3] = tested on: NCI-H292; assay: Cell growth inhibition assay (CellTiter-Glo), NCI-H292; conditions: Homo sapiens; Table 7; NCI-H292 cells; head prints 24 h
# Description: as §1, with “Then, the cells were cultured at 37° C. for three days following compound treatment, 100 μL of CellTiter-Glo reagents (Promega G7573) was added to each well of the 96-well plate.” left out
# as §2
# [4] = tested on: BaF3_DTC; assay: Cell growth inhibition assay (CellTiter-Glo), BaF3_DTC; conditions: Table 7; BaF3_Del19/T790M/C797S cells; head prints 24 h; read-out: GI50 (nM), 24 h, BaF3_Del19/T790M/C797S
# [5] = tested on: BaF3_ASV; assay: Cell growth inhibition assay (CellTiter-Glo), BaF3_ASV; conditions: Table 7; BaF3_ASV cells; head prints 24 h; read-out: GI50 (nM), 24 h, BaF3_ASV
# [6] = target: T2, BaF3_SVD (EGFR_D770insSVD) (Homo sapiens, UniProt P00533, INS770SVD); assay: EGFR degradation assay (western blot), BaF3_SVD cells; conditions: Table 5; BaF3_SVD cells, 24 h
# T2 construct: expressed in transfected cells; host or cells: Ba/F3 (engineered)
# T2 sequence (P00533 with tags, fused parts or gaps INS770SVD): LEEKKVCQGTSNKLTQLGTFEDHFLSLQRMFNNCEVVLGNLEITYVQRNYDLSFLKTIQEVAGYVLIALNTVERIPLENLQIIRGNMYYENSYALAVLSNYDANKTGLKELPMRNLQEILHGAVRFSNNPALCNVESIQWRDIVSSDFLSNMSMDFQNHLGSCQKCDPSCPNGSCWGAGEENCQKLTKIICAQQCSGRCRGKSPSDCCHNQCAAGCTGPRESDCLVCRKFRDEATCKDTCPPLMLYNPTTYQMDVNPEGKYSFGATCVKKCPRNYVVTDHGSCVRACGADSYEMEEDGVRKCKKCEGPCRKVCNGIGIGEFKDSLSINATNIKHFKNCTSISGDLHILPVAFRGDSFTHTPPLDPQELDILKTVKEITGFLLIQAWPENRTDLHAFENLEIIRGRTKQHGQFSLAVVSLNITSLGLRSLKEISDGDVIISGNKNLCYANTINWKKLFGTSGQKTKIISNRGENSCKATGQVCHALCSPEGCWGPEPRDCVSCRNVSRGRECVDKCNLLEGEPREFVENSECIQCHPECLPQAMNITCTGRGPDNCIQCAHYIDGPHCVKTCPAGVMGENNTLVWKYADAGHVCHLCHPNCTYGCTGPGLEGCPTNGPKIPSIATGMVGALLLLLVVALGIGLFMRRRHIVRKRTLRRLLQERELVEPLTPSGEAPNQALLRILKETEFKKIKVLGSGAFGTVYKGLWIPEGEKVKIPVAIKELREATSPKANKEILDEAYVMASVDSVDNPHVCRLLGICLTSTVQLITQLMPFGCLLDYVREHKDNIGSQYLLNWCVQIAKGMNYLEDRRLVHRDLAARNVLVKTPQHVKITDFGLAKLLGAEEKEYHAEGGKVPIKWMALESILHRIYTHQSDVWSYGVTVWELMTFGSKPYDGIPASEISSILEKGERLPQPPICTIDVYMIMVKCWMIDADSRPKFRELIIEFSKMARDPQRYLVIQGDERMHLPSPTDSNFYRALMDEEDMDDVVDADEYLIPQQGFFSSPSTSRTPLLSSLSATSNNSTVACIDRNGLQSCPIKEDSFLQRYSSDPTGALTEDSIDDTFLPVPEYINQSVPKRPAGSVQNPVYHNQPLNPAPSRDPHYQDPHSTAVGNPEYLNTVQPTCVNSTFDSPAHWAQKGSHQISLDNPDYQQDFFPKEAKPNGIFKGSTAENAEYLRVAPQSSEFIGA
# Description: as §3
# [7] = target: T3, NCl-H2073 (EGFR_WT) (Homo sapiens, UniProt P00533); assay: EGFR degradation assay (western blot), NCl-H2073 cells; conditions: Table 5; NCI-H2073 cells (EGFR_WT), 24 h
# T3 construct: endogenous in cells; host or cells: A431, NCI-H2073, NCI-H292
# T3 sequence (P00533 25-1210): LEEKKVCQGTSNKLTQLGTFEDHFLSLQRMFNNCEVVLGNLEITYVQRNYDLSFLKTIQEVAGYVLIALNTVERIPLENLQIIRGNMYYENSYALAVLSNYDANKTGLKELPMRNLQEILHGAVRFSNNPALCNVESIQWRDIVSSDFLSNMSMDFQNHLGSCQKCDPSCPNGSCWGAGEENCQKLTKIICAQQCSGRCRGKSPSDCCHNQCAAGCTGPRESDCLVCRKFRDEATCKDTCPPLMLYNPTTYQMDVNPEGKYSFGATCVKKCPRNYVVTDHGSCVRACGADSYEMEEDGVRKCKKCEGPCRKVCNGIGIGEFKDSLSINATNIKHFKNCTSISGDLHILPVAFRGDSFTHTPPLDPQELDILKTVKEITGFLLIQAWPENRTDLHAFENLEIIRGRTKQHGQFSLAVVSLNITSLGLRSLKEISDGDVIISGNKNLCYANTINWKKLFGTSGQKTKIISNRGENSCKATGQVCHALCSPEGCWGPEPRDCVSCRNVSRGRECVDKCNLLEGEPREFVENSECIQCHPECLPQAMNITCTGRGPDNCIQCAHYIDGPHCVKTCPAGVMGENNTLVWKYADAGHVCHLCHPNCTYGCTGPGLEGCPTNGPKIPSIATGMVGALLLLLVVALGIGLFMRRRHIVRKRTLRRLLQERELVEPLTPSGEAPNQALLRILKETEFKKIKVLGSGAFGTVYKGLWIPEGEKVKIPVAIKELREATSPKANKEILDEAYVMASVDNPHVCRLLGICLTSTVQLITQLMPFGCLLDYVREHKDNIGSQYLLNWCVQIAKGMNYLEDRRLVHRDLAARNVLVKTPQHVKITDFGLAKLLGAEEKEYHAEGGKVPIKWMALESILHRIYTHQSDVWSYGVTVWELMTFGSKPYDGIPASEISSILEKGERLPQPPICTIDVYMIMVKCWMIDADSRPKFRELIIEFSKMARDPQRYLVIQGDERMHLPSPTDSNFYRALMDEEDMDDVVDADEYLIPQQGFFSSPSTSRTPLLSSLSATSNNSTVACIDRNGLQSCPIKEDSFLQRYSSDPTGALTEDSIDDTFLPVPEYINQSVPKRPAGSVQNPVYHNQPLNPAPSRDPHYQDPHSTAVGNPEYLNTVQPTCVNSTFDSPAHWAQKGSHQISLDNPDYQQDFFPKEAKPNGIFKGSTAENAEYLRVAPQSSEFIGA
# Description: as §3, with “min.” for “min. Then, proteins were transferred onto PVDF membranes using the MiniBlot™ Electrophoretic Transfer Cell Device (Beyotime, E6050). The membrane was blocked using block buffer (LI-COR 927-60001) to prevent non-specific binding. The membrane was incubated with primary antibodies (1:500 dilution, EGFR-CST4405, 1:2000 dilution, Tubulin-ABclonal #AC021) at 4° C. overnight. The membrane was washed three times with 1× TBST buffer for 15 min each. The membrane was incubated with secondary antibodies IRDye 680RD Goat anti-Rabbit IgG Secondary Antibody (1:2000 dilution, LI-COR 926-68071) and IRDye 800CW Goat anti-Mouse IgG Secondary Antibody (1:2000 dilution, LI-COR 926-32210).”
# [8] = target: T4, BaF3_ASV (EGFR_A776inASV) (Homo sapiens, UniProt P00533, DUP767-769); assay: EGFR degradation assay (western blot), BaF3_ASV cells; conditions: Table 5; BaF3_ASV cells, 24 h; read-out: DC50 (nM), 24 h, BaF3_ASV
# T4 construct: expressed in transfected cells; host or cells: Ba/F3 (engineered)
# T4 sequence (P00533 with tags, fused parts or gaps DUP767-769): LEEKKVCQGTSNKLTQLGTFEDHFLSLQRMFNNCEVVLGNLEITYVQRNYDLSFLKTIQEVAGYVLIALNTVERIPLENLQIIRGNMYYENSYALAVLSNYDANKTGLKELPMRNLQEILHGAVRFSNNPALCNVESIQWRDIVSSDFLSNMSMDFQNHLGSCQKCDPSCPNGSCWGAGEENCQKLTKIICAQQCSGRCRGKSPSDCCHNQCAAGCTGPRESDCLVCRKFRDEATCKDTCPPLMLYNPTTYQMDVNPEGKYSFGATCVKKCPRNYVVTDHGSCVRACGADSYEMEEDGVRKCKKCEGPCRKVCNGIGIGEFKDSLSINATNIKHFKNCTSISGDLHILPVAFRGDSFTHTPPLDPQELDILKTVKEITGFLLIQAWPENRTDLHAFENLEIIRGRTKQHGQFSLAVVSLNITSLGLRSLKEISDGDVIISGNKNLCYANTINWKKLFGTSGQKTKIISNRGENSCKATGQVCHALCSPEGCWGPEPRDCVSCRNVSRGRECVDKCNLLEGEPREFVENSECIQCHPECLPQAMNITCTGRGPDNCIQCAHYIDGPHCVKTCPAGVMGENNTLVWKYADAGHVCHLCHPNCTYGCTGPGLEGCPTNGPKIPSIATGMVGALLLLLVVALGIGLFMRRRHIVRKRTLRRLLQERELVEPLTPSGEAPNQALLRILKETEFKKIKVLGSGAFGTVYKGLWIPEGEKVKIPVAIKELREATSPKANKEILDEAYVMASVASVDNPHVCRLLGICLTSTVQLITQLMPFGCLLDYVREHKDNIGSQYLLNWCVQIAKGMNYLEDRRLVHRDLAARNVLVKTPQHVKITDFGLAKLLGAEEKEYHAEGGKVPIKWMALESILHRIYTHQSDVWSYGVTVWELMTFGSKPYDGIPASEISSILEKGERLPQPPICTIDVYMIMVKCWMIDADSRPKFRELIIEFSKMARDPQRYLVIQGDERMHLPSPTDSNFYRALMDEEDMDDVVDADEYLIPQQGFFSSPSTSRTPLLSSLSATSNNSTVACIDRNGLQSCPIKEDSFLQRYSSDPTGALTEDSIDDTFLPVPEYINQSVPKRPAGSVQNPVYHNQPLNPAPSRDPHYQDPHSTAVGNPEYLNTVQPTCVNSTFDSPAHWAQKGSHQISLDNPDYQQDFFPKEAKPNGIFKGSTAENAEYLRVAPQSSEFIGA
# How it was run: (§4)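 Cells seeded overnight, then exposed to compounds for 24 h; lysates run on western blot, EGFR probed with tubulin loading control and fluorescent secondary detection. DC50 = concentration giving 50% EGFR degradation.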
# [9] = target: T5, A431 (EGFR_WT) (Homo sapiens, UniProt P00533); assay: EGFR degradation assay (western blot), A431 cells; conditions: Table 5, 24 h, read-out: DC50 (nM), 24 h, A431
# T5 construct: endogenous in cells; host or cells: A431, NCI-H2073, NCI-H292
# T5 sequence (P00533 25-1210): as the sequence (P00533 25-1210) above
# How it was run: as §4
# [10] = tested on: A431; assay: Cell growth inhibition assay (CellTiter-Glo), A431; conditions: Homo sapiens, A-431, 24 h, Table 7; A431 cells; head prints 24 h; read-out: GI50 (nM), 24 h, A431
# How it was run: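 Cells were plated in 96-well plates (Corning 3610) at 90 μL of culture medium per well and incubated overnight at 37° C. The next day, a 1,000× DMSO compound stock was diluted 1:100 in cell culture medium, and 10 μL was added per well. After shaking for 10 min, luminescence was read on an Envision (PerkinElmer) reader.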
# [11] = tested on: BaF3_YVMA; assay: Cell growth inhibition assay (CellTiter-Glo), BaF3_YVMA; conditions: Table 7; BaF3_YVMA cells; head prints 24 h
# Description: as §1, with “Then, the cells were cultured at 37° C. for three days following compound treatment, 100 μL of CellTiter-Glo reagents (Promega G7573) was added to each well of the 96-well plate.” left out
# as §2
# [12] = target: T6, NCl-H292 (EGFR_WT) (Homo sapiens, UniProt P00533); assay: EGFR degradation assay (western blot), NCl-H292 cells; conditions: Table 5; NCI-H292 cells (EGFR_WT), 24 h
# T6 construct: endogenous in cells; host or cells: A431, NCI-H2073, NCI-H292
# Description: as §3, with “min.” for “min. Then, proteins were transferred onto PVDF membranes using the MiniBlot™ Electrophoretic Transfer Cell Device (Beyotime, E6050). The membrane was blocked using block buffer (LI-COR 927-60001) to prevent non-specific binding. The membrane was incubated with primary antibodies (1:500 dilution, EGFR-CST4405, 1:2000 dilution, Tubulin-ABclonal #AC021) at 4° C. overnight. The membrane was washed three times with 1× TBST buffer for 15 min each. The membrane was incubated with secondary antibodies IRDye 680RD Goat anti-Rabbit IgG Secondary Antibody (1:2000 dilution, LI-COR 926-68071) and IRDye 800CW Goat anti-Mouse IgG Secondary Antibody (1:2000 dilution, LI-COR 926-32210).”
# [13] = tested on: BaF3_DTC (EGFR_Exon19del/T790M/C797S); assay: EGFR degradation assay (western blot), BaF3_DTC cells; conditions: Table 5; BaF3_Del19/T790M/C797S cells, 24 h; read-out: DC50 (nM), 24 h, BaF3_Del19/T790M/C797S
# How it was run: as §4
smiles,measurement,setting,value
"CCc1cc(Nc2ncc(Br)c(Nc3cnc4ccccc4c3P(C)(C)=O)n2)c(OC)cc1N1CCC(N2CCN(CCc3cccc4c3n(CC)c(=O)n4C3CCC(=O)NC3=O)CC2)CC1 (stereo not shown) [Compound A, reference compound]",GI50,[1],2340 nM
same,DC50,[2],> 1000 nM
same,GI50,[3],> 3000 nM
same,GI50,[4],8.57 nM
same,GI50,[5],824 nM
same,DC50,[6],280 nM
same,DC50,[7],> 1000 nM
same,DC50,[8],109 nM
same,DC50,[9],> 1000 nM
same,GI50,[10],> 3000 nM
same,GI50,[11],2630 nM
same,DC50,[12],> 1000 nM
same,DC50,[13],0.622 nM
